Source: patent publication US12325709B2, “Cannabinoid derivatives” (CANOPY GROWTH CORPORATION, priority 2019, dated 2025)

Assays:
human CB1 receptor = molecular target: T1, human CB1 receptor (Homo sapiens, UniProt P21554); experiment: CB1 radioligand competitive binding assay ([3H]CP 55,940 displacement); conditions: for Selectivity CB1: fold difference in binding between CB1 and CB2, shown in column of receptor with higher affinity, 1.00 in both = about the same affinity
T1 construct: host or cells: CHO-K1 (Chinese hamster ovary) cells, stably transfected; membranes prepared in house

human CB2 receptor = molecular target: T2, human CB2 receptor (Homo sapiens, UniProt P34972); experiment: CB2 radioligand competitive binding assay ([3H]CP 55,940 displacement); conditions: for Selectivity CB2: fold difference in binding between CB1 and CB2, shown in column of receptor with higher affinity, 1.00 in both = about the same affinity
T2 construct: host or cells: CHO-K1 (Chinese hamster ovary) cells, stably transfected; membranes prepared in house
Experimental: Compounds of the present disclosure were tested for CB1 receptor binding affinity and for CB2 receptor binding affinity. As used herein, “binding affinity” is represented by the IC50 value, which was experimentally determined as described herein. The lower the IC50 value the higher the binding affinity.
The membranes were prepared from CHO-K1 (Chinese hamster ovary) cells stably transfected with the human CB2 receptor (Cat. #ES-111-C; Perkin Elmer, Boston, MA). The cells were grown adherently and maintained in Ham's F12 medium containing 10% fetal bovine serum (FBS), penicillin, streptomycin and geneticin (G418) at 37° C. in a humid atmosphere of 5% CO2 following the manufacturer's instructions.
For membrane preparation the cells were washed with PBS and scraped off the plates in cold homogenization buffer (25 mM HEPES (pH 7.4), 2 mM EDTA) containing protease inhibitor cocktail (Sigma Cat. #P8340). The cell suspension was homogenized with a Pro-PK-01200D Polytron Homogenizer (Pro Scientific) and then centrifuged for 30 min at 120,000×g. The supernatant was discarded and the pellet was re-suspended in the homogenization buffer and stored at −80° C. until the time of use.
In this experiment, 3H radiolabeled CP 55,940, i.e. [3H]CP 55,940 (Perkin Elmer, Boston, MA), was used as a radioligand for the CB2 receptor to determine the binding affinity of compounds for the CB2 receptor (Scheme 3; above).
The competition binding experiments (single dose and dose-response) were performed by incubating 0.6 nM of [3H]CP55,940 (specific activity 101 Ci/mmol, Perkin Elmer) and different concentrations of compounds disclosed herein with membranes prepared as above from CHO-K1 cells expressing human CB2 receptor (1 μg of protein/well), 50 mM Tris-HCl (pH 7.4), 5 mM MgCl2, 1 mM CaCl2, and 2 mg/mL BSA.
For the dose-response experiments the test compounds were sequentially diluted to provide the desired concentration range for the IC50 determination. In each case the compounds were pre-incubated with the membrane for 20 min, before adding the radioligand.
After incubation with the radioligand for 60 min at 37° C., the incubation was terminated by rapid filtration of assay mixture through MultiScreen®HTS^+ 96-well filter plates (Millipore, Cat. #MSFCNXB), pre-soaked for 60 min with 50 mM Tris-HCl (pH 7.4) containing 0.33% polyethylenimine (PEI). The nonspecific binding (NSB) was determined in the presence of 10 μM unlabelled CP55,940. After drying the filter plate at 50° C. for at least 60 min, the filter-bound radioactivity was determined by scintillation spectrometry using the 1450 MicroBeta Plate Counter (Perkin Elmer, Boston, MA).

T1 sequence (P21554 whole entry): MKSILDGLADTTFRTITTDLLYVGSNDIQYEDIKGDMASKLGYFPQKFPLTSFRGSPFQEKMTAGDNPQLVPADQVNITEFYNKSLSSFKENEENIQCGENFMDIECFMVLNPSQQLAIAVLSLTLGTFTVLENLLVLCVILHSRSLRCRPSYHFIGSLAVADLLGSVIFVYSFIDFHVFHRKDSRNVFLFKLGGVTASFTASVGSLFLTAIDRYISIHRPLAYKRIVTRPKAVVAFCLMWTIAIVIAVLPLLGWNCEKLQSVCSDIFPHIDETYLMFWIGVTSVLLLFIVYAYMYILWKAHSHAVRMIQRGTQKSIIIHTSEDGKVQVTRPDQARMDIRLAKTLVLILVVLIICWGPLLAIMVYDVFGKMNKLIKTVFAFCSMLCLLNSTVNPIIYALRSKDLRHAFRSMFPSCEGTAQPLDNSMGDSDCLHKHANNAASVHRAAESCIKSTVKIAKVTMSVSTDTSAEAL
T2 sequence (P34972 whole entry): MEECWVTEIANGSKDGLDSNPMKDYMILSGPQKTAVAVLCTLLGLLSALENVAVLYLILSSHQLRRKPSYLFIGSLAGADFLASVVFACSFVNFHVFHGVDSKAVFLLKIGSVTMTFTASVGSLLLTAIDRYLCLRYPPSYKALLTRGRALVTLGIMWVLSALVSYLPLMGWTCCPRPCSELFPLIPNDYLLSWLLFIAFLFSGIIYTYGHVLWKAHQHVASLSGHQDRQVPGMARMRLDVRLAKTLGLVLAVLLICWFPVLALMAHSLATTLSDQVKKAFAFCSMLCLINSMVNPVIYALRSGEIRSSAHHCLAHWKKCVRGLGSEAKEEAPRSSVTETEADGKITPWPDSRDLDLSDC

SMILES	IC50 (human CB1 receptor) [nM]	IC50 (human CB2 receptor) [nM]	Selectivity CB2 (human CB2 receptor) [fold]	Selectivity CB1 (human CB1 receptor) [fold]
CCCCCc1cc(O)c(C2C=C(C)CCC2)c(O)c1C(=O)N1CCCC1 (stereo not shown) [Compound 41c, (2,6-dihydroxy-5′-methyl-4-pentyl-1′,2′,3′,4′-tetrahydro-[1,1′-biphenyl]-3-yl)(pyrrolidin-1-yl)methanone]	> 5000	1000 to 4990	13.31	
CCCCCc1cc(O)c(C2C=C(C)CCC2)c(O)c1C(=O)N1CCN(S(C)(=O)=O)CC1 (stereo not shown) [Compound 37c, (2,6-dihydroxy-5′-methyl-4-pentyl-1′,2′,3′,4′-tetrahydro-[1,1′-biphenyl]-3-yl)(4-(methylsulfonyl)piperazin-1-yl)methanone]	> 5000	100 to 990	66.67	
C=C(C)[C@@H]1CCC(C)=C[C@H]1c1c(O)cc(CCCCC)c(C(=O)N2CCOCC2)c1O [Compound 39d, (2,6-dihydroxy-5′-methyl-4-pentyl-2′-(prop-1-en-2-yl)-1′,2′,3′,4′-tetrahydro-[1,1′-biphenyl]-3-yl)(morpholino)methanone]	> 5000	1000 to 4990	3.49	
C=C(C)[C@@H]1CCC(C)=C[C@H]1c1c(O)cc(CCCCC)c(C(=O)NCc2cccnc2)c1O [Compound 15d, 2,6-dihydroxy-5′-methyl-4-pentyl-2′-(prop-1-en-2-yl)-N-(pyridin-3-ylmethyl)-1′,2′,3′,4′-tetrahydro-[1,1′-biphenyl]-3-carboxamide]	100 to 990	100 to 990		2.48
CCCCCc1cc(O)c(C2C=C(C)CCC2)c(O)c1C(=O)N1CCn2cnnc2C1 (stereo not shown) [Compound 34c, (5,6-dihydro-[1,2,4]triazolo[4,3-a]pyrazin-7(8H)-yl)(2,6-dihydroxy-5′-methyl-4-pentyl-1′,2′,3′,4′-tetrahydro-[1,1′-biphenyl]-3-yl)methanone]	> 5000	> 5000	1.00	1.00
CCCCCc1cc(O)c(-c2cccc(C)c2)c(O)c1C(=O)NCc1cccnc1 [Compound 15a, 2,6-dihydroxy-3′-methyl-4-pentyl-N-(pyridin-3-ylmethyl)-[1,1′-biphenyl]-3-carboxamide]	> 5000	100 to 990	17.62	
CCCCCc1cc(O)c(C2C=C(C)CCC2)c(O)c1C(=O)NCc1ccccc1 (stereo not shown) [Compound 14c, N-benzyl-2,6-dihydroxy-5′-methyl-4-pentyl-1′,2′,3′,4′-tetrahydro-[1,1′-biphenyl]-3-carboxamide]	1000 to 4990	< 100	1300.00	
CCCCCc1cc(O)c(C2C=C(C)CCC2)c(O)c1C(=O)N1CCOCC1 (stereo not shown) [Compound 39c, (2,6-dihydroxy-5′-methyl-4-pentyl-1′,2′,3′,4′-tetrahydro-[1,1′-biphenyl]-3-yl)(morpholino)methanone]	1000 to 4990	1000 to 4990	3.20	
CCCCCc1cc(O)c(C2C=C(C)CCC2)c(O)c1CN(C)C(=O)OC (stereo not shown) [Compound 59c, methyl ((2,6-dihydroxy-5′-methyl-4-pentyl-1′,2′,3′,4′-tetrahydro-[1,1′-biphenyl]-3-yl)methyl)(methyl)carbamate]	100 to 990	< 100	9.26	
C=CCNC(=O)c1c(CCCCC)cc(O)c(C2C=C(C)CCC2)c1O (stereo not shown) [Compound 25c, N-allyl-2,6-dihydroxy-5′-methyl-4-pentyl-1′,2′,3′,4′-tetrahydro-[1,1′-biphenyl]-3-carboxamide]	1000 to 4990	100 to 990	16.53	
CCCCCc1cc(O)c(-c2cccc(C)c2)c(O)c1C(=O)N1CCOCC1 [Compound 39a, (2,6-dihydroxy-3′-methyl-4-pentyl-[1,1′-biphenyl]-3-yl)(morpholino)methanone]	> 5000	> 5000	3.70	
CCCCCc1cc(O)c(C2C=C(C)CCC2)c(O)c1C(=O)NC1CCCC1 (stereo not shown) [Compound 7c, N-cyclopentyl-2,6-dihydroxy-5′-methyl-4-pentyl-1′,2′,3′,4′-tetrahydro-[1,1′-biphenyl]-3-carboxamide]	100 to 990	< 100	188.10	
C=C(C)[C@@H]1CCC(C)=C[C@H]1c1c(O)cc(CCCCC)c(C(=O)NC)c1O [Compound 1d, 2,6-dihydroxy-N,5′-dimethyl-4-pentyl-2′-(prop-1-en-2-yl)-1′,2′,3′,4′-tetrahydro-[1,1′-biphenyl]-3-carboxamide]	1000 to 4990	100 to 990	1.26	
CCCCCc1cc(O)c(C2C=C(C)CCC2)c(O)c1C(N)=O (stereo not shown) [Compound 58c, 2,6-dihydroxy-5′-methyl-4-pentyl-1′,2′,3′,4′-tetrahydro-[1,1′-biphenyl]-3-carboxamide]	> 5000	1000 to 4990	11.83	
CCCCCc1cc(O)c(C2C=C(C)CCC2)c(O)c1C(=O)NCc1cccnc1 (stereo not shown) [Compound 15c, 2,6-dihydroxy-5′-methyl-4-pentyl-N-(pyridin-3-ylmethyl)-1′,2′,3′,4′-tetrahydro-[1,1′-biphenyl]-3-carboxamide]	1000 to 4990	< 100	23.17	
CCCCCc1cc(O)c(-c2cccc(C)c2)c(O)c1CN(C)C(=O)OC [Compound 59a, methyl ((2,6-dihydroxy-3′-methyl-4-pentyl-[1,1′-biphenyl]-3-yl)methyl)(methyl)carbamate]	100 to 990	< 100	10.91	
C=C(C)[C@@H]1CCC(C)=C[C@H]1c1c(O)cc(CCCCC)c(C(=O)NC2CC2)c1O [Compound 6d, N-cyclopropyl-2,6-dihydroxy-5′-methyl-4-pentyl-2′-(prop-1-en-2-yl)-1′,2′,3′,4′-tetrahydro-[1,1′-biphenyl]-3-carboxamide]	> 5000	1000 to 4990	9.09	
C=C(C)[C@@H]1CCC(C)=C[C@H]1c1c(O)cc(CCCCC)c(C(=O)NCC)c1O [Compound 3d, N-ethyl-2,6-dihydroxy-5′-methyl-4-pentyl-2′-(prop-1-en-2-yl)-1′,2′,3′,4′-tetrahydro-[1,1′-biphenyl]-3-carboxamide]	1000 to 4990	1000 to 4990	1.80	
CCCCCc1cc(O)c(C2C=C(C)CCC2)c(O)c1C(=O)NCc1ccccc1Br (stereo not shown) [Compound 57c, N-(2-bromobenzyl)-2,6-dihydroxy-5′-methyl-4-pentyl-1′,2′,3′,4′-tetrahydro-[1,1′-biphenyl]-3-carboxamide]	1000 to 4990	< 100	21.67	
C=C(C)[C@@H]1CCC(C)=C[C@H]1c1c(O)cc(CCCCC)c(C(=O)Nc2ccc(OC)cc2)c1O [Compound 11d, 2,6-dihydroxy-N-(4-methoxyphenyl)-5′-methyl-4-pentyl-2′-(prop-1-en-2-yl)-1′,2′,3′,4′-tetrahydro-[1,1′-biphenyl]-3-carboxamide]	1000 to 4990	100 to 990	3.11	
CCCCCc1cc(O)c(C2C=C(C)CCC2)c(O)c1C(=O)NC1CC1 (stereo not shown) [Compound 6c, N-cyclopropyl-2,6-dihydroxy-5′-methyl-4-pentyl-1′,2′,3′,4′-tetrahydro-[1,1′-biphenyl]-3-carboxamide]	1000 to 4990	< 100	40.14	
CCCCCc1cc(O)c(C2C=C(C)CCC2)c(O)c1C(=O)NC (stereo not shown) [Compound 1c, 2,6-dihydroxy-N,5′-dimethyl-4-pentyl-1′,2′,3′,4′-tetrahydro-[1,1′-biphenyl]-3-carboxamide]	> 5000	1000 to 4990	3.20	
C=C(C)C1CCC(C)=CC1c1c(O)cc(CCCCC)c(C(=O)NCc2ccccc2)c1O (stereo not shown) [Compound 14d, N-benzyl-2,6-dihydroxy-5′-methyl-4-pentyl-2′-(prop-1-en-2-yl)-1′,2′,3′,4′-tetrahydro-[1,1′-biphenyl]-3-carboxamide]	> 5000	1000 to 4990	13.50	
